In brackets after ≈: the same amount, converted by molar mass. Activity calls are given as the source filed them. The calls are words filed in the database; no cut-off is given here.
What was measured:
[1] = Oral bioavailability in rat at 10 mg/kg; assay type: ADME, organism-based; conditions: in vivo
[2] = target: T1, Protein cereblon-BTK (Macaca fascicularis) (UniProt A0A2K5UTB3+A0A7N9IGT8); assay: In vivo protac activity at CRBN/BTK in cynomolgus monkey assessed as remaining BTK protein in B cells at 10 mg/kg,po administration for 1 day by flow cytomtery relative to control; assay type: functional, organism-based
[3] = target: Cytochrome P450 2D6 (Homo sapiens, UniProt P10635); assay: Inhibition of CYP2D6 (unknown origin); assay type: ADME
[4] = AUClast in cynomolgus monkey at 10 mg/kg,po administration for 1 day; assay type: ADME, organism-based, Macaca fascicularis; parameters: dose 10 mg/kg, time 1 day, route po; conditions: in vivo
[5] = target: T1, Protein cereblon-BTK (Macaca fascicularis); assay: In vivo protac activity at CRBN/BTK in cynomolgus monkey assessed as remaining BTK protein in B cells at 30 mg/kg,po administration for 1 day by flow cytomtery relative to control; assay type: functional, organism-based
[6] = target: Cytochrome P450 1A2 (Homo sapiens, UniProt P05177); assay: Inhibition of CYP1A2 (unknown origin); assay type: ADME
[7] = system: TMD8; assay: Antitumor activity against human TMD8 cells expressing wild type BTK xenografted in CB17-SCID mouse assessed as tumor growth inhibition at 10 mg/kg,po administration for 25 days; assay type: functional; conditions: TMD8, 600 h, time 25 day, read-out: TGI
[8] = Aqueous solubility of the compound in PBS at pH 7.4; assay type: physicochemical
[9] = target: T2, Protein cereblon/Tyrosine-protein kinase BTK (Mus musculus) (UniProt P35991+Q8C7D2); assay: In vivo protac activity at CRBN/BTK in mouse assessed as remaining BTK protein at 10 mg/kg,po administration measured after 24 hrs by flow cytomtery relative to control; assay type: functional, organism-based
[10] = Observed clearance in cynomolgus monkey at 1 mg/kg,iv; assay type: ADME, organism-based, Macaca fascicularis; conditions: in vivo
[11] = AUC in rat at 10 mg/kg,po; assay type: ADME, organism-based; parameters: dose 10 mg/kg, route po; conditions: in vivo
[12] = Cmax in mouse at 10 mg/kg,po; assay type: ADME, organism-based; parameters: dose 10 mg/kg, route po; conditions: in vivo
[13] = system: TMD8; assay: Antitumor activity against human TMD8 cells expressing BTK C481S mutant xenografted in CB17-SCID mouse assessed as tumor growth inhibition at 30 mg/kg,po administration for 25 days; assay type: functional; conditions: TMD8, 600 h, time 25 day, read-out: TGI
[14] = target: T2, Protein cereblon/Tyrosine-protein kinase BTK (Mus musculus); assay: In vivo protac activity at CRBN/BTK in BALB/c mouse assessed as residual BTK protein in blood at 3 mg/kg,po administration measured after 24 hrs by flow cytomtery relative to control
[15] = AUC in mouse at 10 mg/kg,po; assay type: ADME, organism-based; parameters: dose 10 mg/kg, route po; conditions: in vivo
[16] = Lipophilicity, logD of compound at pH 7.4; assay type: physicochemical; conditions: buffer
[17] = target: T1, Protein cereblon-BTK (Macaca fascicularis); assay: In vivo protac activity at CRBN/BTK in cynomolgus monkey assessed as degradation of BTK protein at po administration measured after 24 hrs by flow cytomtery; assay type: functional, organism-based
[18] = Cmax in rat at 10 mg/kg,po; assay type: ADME, organism-based; parameters: dose 10 mg/kg, route po; conditions: in vivo
[19] = Observed clearance in dog at 1 mg/kg,iv; assay type: ADME, organism-based, Canis lupus familiaris; conditions: in vivo
[20] = Cmax in dog at 10 mg/kg,po; assay type: ADME, organism-based, Canis lupus familiaris; parameters: dose 10 mg/kg, route po; conditions: in vivo
[21] = Observed clearance in rat at 1 mg/kg,iv; assay type: ADME, organism-based; conditions: in vivo
[22] = target: Cytochrome P450 3A4 (Homo sapiens, UniProt P08684); assay: Inhibition of CYP3A4 (unknown origin); assay type: ADME
[23] = Cmax in cynomolgus monkey at 10 mg/kg,po administration for 1 day; assay type: ADME, organism-based, Macaca fascicularis; parameters: time 1 day, dose 10 mg/kg, route po; conditions: in vivo, 24 h
[24] = target: T3, Protein cereblon/Zinc finger protein Aiolos (Macaca fascicularis) (UniProt A0A2K5UTB3+A0A2K5VJM3); assay: In vivo protac activity at CRBN/IKZF3 in cynomolgus monkey assessed as degradation of IKZF3 protein at 30 mg/kg,po administration for 14 days by flow cytomtery relative to control; assay type: functional, organism-based; conditions: time 14.0 day
[25] = target: T3, Protein cereblon/Zinc finger protein Aiolos (Macaca fascicularis); assay: In vivo protac activity at CRBN/IKZF3 in cynomolgus monkey assessed as degradation of IKZF3 protein at 10 mg/kg,po administration for 14 days by flow cytomtery relative to control; assay type: functional, organism-based; conditions: time 14.0 day
[26] = target: T4, Protein cereblon/Tyrosine-protein kinase BTK (Homo sapiens, UniProt Q06187+Q96SW2); assay: PROTAC activity at CRBN/BTK in human TMD8 cells assessed as maximal degradation of BTK protein incubated for 4 hrs by HTRF assay relative to control; assay type: cell-based
[27] = target: Tyrosine-protein kinase BTK (Homo sapiens, UniProt Q06187, C481S); assay: Binding affinity to BTK C481S mutant (unknown origin) assessed as dissociation constant by surface plasmon resonance assay
[28] = target: T4, Protein cereblon/Tyrosine-protein kinase BTK; assay: PROTAC activity at CRBN/BTK in human TMD8 cells assessed as degradation of BTK protein incubated for 4 hrs by HTRF assay; assay type: cell-based
Target sequence in this assay (Q06187 whole entry): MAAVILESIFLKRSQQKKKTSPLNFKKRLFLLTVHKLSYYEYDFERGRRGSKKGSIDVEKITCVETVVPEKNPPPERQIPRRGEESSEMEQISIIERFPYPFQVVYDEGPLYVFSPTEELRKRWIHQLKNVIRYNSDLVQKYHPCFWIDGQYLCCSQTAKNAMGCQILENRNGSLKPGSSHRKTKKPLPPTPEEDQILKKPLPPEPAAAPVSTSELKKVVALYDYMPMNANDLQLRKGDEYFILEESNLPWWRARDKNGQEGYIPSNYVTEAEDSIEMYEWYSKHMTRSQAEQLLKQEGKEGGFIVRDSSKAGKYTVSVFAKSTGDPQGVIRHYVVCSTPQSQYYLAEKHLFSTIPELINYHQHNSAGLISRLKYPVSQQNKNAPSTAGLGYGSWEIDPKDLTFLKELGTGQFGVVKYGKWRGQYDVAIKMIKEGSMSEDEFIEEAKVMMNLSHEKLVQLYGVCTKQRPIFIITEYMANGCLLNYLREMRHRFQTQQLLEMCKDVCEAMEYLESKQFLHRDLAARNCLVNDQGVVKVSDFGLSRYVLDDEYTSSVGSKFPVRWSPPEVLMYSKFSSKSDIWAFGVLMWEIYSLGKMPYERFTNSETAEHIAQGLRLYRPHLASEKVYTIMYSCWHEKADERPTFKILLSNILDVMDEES
Target sequence in this assay (Q96SW2 whole entry): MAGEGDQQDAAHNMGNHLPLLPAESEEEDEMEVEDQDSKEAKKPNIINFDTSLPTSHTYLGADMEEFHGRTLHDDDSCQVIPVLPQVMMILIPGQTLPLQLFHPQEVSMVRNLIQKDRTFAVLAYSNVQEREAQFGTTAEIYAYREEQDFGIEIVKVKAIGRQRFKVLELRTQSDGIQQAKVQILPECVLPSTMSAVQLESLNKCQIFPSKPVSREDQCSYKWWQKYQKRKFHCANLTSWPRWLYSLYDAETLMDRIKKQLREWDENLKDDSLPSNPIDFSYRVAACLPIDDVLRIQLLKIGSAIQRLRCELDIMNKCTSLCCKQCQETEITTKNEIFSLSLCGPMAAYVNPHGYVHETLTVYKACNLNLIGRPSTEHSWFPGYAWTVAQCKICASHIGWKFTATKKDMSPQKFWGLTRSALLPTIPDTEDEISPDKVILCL

[29] = target: Protein cereblon/Tyrosine-protein kinase BTK (Homo sapiens, UniProt Q06187+Q96SW2, C481S); assay: PROTAC activity at CRBN/BTK C481S mutant in human TMD8 cells assessed as degradation of BTK protein incubated for 4 hrs by HTRF assay; assay type: cell-based
[30] = Drug uptake in BALB/c mouse plasma at po administration; assay type: ADME, organism-based; conditions: in vivo
[31] = AUC in dog at 10 mg/kg,po; assay type: ADME, organism-based, Canis lupus familiaris; parameters: dose 10 mg/kg, route po; conditions: in vivo
[32] = target: Cytochrome P450 2C9 (Homo sapiens, UniProt P11712); assay: Inhibition of CYP2C9 (unknown origin); assay type: ADME
[33] = target: T1, Protein cereblon-BTK (Macaca fascicularis); assay: In vivo protac activity at CRBN/BTK in cynomolgus monkey assessed as remaining BTK protein in B cells at 100 mg/kg,po administration for 1 day by flow cytomtery relative to control; assay type: functional, organism-based
[34] = Apparent permeability across apical to basolateral side in human Caco-2 cells; assay type: ADME, cell-based
[35] = target: Protein cereblon/Zinc finger protein Aiolos (Homo sapiens, UniProt Q96SW2+Q9UKT9); assay: In vivo protac activity at CRBN/IKZF3 in CB17-SCID mouse xenografted with human TMD8 cells assessed as degradation of IKZF3 protein in tumor at 10 to 90 mg/kg,po administration for 25 days by flow cytomtery; assay type: functional, organism-based; conditions: dose 10-90 mg/kg, time 25.0 day
[36] = target: T2, Protein cereblon/Tyrosine-protein kinase BTK (Mus musculus); assay: In vivo protac activity at CRBN/BTK in CB17-SCID mouse assessed as degradation of BTK protein in B cells at 10 to 90 mg/kg,po administration for 25 days by flow cytomtery; assay type: functional, organism-based; conditions: dose 10-90 mg/kg, time 25.0 day
[37] = Observed clearance in mouse at 1 mg/kg,iv; assay type: ADME, organism-based; conditions: in vivo

T2 sequence (P35991 whole entry, looked up): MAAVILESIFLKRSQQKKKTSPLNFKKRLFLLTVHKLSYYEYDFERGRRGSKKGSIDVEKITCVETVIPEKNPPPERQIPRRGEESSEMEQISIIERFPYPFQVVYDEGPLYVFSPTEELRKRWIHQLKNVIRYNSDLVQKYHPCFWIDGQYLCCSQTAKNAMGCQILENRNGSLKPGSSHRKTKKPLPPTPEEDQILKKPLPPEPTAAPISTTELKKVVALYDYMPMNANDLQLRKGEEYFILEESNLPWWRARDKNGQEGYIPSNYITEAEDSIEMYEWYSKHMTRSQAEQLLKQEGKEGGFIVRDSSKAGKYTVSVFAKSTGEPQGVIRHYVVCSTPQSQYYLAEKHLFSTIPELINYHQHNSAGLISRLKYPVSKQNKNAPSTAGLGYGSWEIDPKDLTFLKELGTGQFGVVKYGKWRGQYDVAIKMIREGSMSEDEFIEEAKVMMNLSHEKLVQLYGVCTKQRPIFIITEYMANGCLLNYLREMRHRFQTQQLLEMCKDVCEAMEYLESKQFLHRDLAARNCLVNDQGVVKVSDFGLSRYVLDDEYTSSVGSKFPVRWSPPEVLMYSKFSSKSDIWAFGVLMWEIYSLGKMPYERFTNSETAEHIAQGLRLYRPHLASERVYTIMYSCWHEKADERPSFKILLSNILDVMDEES
T2 sequence (Q8C7D2 whole entry, looked up): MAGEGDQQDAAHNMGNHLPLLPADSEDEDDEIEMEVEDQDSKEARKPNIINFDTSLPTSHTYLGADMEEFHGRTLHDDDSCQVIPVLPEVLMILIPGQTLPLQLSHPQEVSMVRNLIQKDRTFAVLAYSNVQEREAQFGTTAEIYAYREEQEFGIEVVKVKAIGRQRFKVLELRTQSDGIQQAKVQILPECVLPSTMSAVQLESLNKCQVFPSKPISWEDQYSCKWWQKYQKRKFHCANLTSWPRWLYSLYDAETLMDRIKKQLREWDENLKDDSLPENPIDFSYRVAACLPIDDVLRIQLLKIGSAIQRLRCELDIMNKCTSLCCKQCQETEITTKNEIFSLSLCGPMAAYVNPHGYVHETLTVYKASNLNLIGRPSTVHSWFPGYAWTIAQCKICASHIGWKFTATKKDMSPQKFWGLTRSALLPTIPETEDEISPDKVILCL
T1 sequence (A0A2K5UTB3 1-488): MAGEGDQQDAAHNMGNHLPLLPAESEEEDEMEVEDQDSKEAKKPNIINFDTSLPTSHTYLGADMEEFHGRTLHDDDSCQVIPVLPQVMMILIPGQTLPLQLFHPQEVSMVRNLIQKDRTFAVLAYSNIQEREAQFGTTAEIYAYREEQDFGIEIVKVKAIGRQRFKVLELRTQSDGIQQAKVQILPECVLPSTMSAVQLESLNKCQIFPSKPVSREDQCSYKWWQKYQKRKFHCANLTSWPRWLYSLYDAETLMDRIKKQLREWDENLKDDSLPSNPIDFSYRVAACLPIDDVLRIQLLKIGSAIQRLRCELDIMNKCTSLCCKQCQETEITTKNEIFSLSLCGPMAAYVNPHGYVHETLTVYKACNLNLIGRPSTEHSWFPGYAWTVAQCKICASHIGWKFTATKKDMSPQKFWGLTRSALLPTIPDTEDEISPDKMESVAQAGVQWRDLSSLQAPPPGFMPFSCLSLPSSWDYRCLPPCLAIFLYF
T1 sequence (A0A7N9IGT8 entry or part of it partner): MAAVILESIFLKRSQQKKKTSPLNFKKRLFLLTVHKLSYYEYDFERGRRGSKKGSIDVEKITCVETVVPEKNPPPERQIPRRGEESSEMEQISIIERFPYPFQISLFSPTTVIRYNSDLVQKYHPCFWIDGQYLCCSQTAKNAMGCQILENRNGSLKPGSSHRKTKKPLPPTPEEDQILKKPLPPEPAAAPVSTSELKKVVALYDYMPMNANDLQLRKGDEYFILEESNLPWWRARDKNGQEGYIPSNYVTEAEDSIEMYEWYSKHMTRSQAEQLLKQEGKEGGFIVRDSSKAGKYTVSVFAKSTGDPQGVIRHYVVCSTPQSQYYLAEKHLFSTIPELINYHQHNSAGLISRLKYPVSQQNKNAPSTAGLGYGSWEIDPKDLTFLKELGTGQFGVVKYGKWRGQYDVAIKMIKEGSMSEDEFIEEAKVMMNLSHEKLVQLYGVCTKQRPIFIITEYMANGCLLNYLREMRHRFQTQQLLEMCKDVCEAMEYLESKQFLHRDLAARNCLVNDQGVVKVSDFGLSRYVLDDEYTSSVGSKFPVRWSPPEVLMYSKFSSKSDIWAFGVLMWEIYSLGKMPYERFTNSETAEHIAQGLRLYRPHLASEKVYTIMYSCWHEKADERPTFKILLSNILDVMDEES
T3 sequence (A0A2K5UTB3 1-488): as the sequence (A0A2K5UTB3 1-488) above
T3 sequence (A0A2K5VJM3 entry or part of it partner): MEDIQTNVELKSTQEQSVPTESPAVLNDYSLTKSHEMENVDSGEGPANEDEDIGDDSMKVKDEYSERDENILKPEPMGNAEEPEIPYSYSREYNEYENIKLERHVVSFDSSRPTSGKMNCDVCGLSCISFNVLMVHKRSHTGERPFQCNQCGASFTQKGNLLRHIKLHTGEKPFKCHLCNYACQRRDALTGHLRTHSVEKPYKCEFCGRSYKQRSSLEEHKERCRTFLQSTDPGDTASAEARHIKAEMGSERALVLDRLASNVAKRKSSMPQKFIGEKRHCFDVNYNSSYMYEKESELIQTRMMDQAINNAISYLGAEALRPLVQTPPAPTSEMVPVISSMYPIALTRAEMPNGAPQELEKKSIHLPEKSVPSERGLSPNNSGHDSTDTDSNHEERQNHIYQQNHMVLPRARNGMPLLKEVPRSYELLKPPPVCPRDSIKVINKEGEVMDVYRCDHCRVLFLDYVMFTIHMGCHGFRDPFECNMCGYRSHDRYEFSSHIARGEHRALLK
Cytochrome P450 3A4, sequence (P08684 whole entry): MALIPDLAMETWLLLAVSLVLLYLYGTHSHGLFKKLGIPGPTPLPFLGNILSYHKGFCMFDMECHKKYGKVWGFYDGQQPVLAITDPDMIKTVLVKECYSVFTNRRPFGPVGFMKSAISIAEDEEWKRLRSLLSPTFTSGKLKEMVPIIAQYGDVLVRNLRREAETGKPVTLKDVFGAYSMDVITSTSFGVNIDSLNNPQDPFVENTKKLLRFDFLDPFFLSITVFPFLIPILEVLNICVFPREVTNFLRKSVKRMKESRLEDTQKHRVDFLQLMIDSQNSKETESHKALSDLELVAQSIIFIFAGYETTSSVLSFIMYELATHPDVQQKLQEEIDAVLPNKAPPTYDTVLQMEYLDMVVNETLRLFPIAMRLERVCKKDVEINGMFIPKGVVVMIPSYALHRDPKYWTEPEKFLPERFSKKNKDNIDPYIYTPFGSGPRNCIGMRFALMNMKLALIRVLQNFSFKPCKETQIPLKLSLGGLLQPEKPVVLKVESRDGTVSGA
Protein cereblon/Zinc finger protein Aiolos, sequence (Q96SW2 whole entry, looked up): as the sequence (Q96SW2 whole entry) above
Protein cereblon/Zinc finger protein Aiolos, sequence (Q9UKT9 whole entry, looked up): as the sequence (A0A2K5VJM3 entry or part of it partner) above, with V8A, T20A, P23A, I71V, P74S, P352S, P409S, V433I, I439V counted along it
Cytochrome P450 2C9, sequence (P11712 whole entry): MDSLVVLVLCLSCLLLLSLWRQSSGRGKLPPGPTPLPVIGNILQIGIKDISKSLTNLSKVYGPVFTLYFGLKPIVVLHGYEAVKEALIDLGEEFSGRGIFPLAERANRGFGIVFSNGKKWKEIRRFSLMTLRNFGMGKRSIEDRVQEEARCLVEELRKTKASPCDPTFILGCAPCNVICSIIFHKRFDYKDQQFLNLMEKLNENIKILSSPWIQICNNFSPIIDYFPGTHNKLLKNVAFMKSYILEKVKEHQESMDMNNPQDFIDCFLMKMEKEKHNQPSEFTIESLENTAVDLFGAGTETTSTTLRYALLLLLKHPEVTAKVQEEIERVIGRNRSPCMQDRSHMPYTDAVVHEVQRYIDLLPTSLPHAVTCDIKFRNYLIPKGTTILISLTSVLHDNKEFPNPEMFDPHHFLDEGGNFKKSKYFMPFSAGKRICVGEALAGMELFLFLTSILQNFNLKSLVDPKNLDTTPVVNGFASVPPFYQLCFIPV

SMILES: NC(=O)c1ncc(N2CCCCC2)nc1Nc1ccc(C2CCN(C[C@H]3CCN(c4ccc5c(c4)C(=O)N(C4CCC(=O)NC4=O)C5=O)C3)CC2)cc1 (some centres not stated) [ZELEBRUDOMIDE]
- bioavailability [1]: 7.1%
- Activity [2]: 11%
- IC50 [3]: > 30 µM
- AUC(0-t) at 24 h [4]: 0.267 µg·h/mL
- Activity [5]: 9%
- IC50 [6]: > 30 µM
- inhibition in vivo at 10 mg/kg [7]: 35%
- solubility [8]: 0.2 µM (≈ 0.144 µg/mL)
- Activity [9]: 21%
- clearance [10]: 1.33 L/h/kg
- AUC [11]: 890 nM·h
- Cmax [12]: 1.3 µM
- inhibition in vivo at 30 mg/kg [13]: 43%
- residual activity [14]: 36%
- AUC [15]: 16000 nM·h
- logD [16]: 3.1
- Activity [17]: Dose-Dependent Effect
- Cmax [18]: 0.067 µM
- clearance [19]: 1.1 L/h/kg
- Cmax [20]: 0.031 µM
- clearance [21]: 1.14 L/h/kg
- IC50 [22]: > 30 µM
- Cmax [23]: 0.0269 µg/mL
- Activity [24]: 55%
- Activity [25]: 76%
- Emax [26]: 94%
- Kd [27]: 0.018 µM
- DC50 [28]: 0.0045 µM
- DC50 [29]: 0.031 µM
- Drug uptake [30]: Dose-Dependent Effect
- AUC [31]: 130 nM·h
- IC50 [32]: > 30 µM
- Activity [33]: 8%
- Papp A→B [34]: < 0.2 nm/s
- Activity [35]: Active
- Activity [36]: Active
- clearance [37]: 0.312 L/h/kg

Reference: ChEMBL document CHEMBL5344441, “Discovery and Preclinical Pharmacology of NX-2127, an Orally Bioavailable Degrader of Bruton's Tyrosine Kinase with Immunomodulatory Activity for the Treatment of Patients with B Cell Malignancies” (J Med Chem, 2024)
